The results in this text go back to patent publication US12459951B2, “Compounds that interact with RAS superfamily proteins for treatment of cancers, inflammatory diseases, rasopathies, and fibrotic disease” (SHY Therapeutics, LLC, priority 2022, dated 2025).

The subject of one data set is Erk1/2 phosphorylation. The data set is described as follows: Erk1/2 Phosphorylation Assay (western blot), Panc-1. The class given is cell-based, human. The following applies: at 10 μM, * = activation. A digest of the protocol:
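Phospho-Erk1/2 (Thr202/Tyr204) was detected by western blot in lysates of Panc-1 cells (KRas G12D). These had 6 h, 37° C exposure to 10 μM compound or a dilution series for IC50, in 0.3% DMSO. Cells were either starved overnight in 0.5% FBS with a 15-min 1.5 ng/ml EGF pulse, or kept unstimulated in 10% FBS.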
(A western blot detects proteins with antibodies after separation by electrophoresis.)

The test system of another data set is IL6. Put plainly: IL-6 Quantification Assay (ELISA), LPS-stimulated RAW 264.7. The following applies: Mus musculus, RAW264.7; read-out: IL-6: % inh. Also on record: inhibition: dose or concentration left out as unconfirmed. The class given is cell-based. On the technique in general: An ELISA detects its analyte on a solid surface through an enzyme-linked reagent.

Another data set deals with TNF-alpha. Put plainly: TNF-alpha Quantification Assay (ELISA), LPS-stimulated RAW 264.7. It is filed as cell-based. Particulars: Mus musculus, RAW264.7; at 10 μM; read-out: TNFα: % inh.
Data set [1] is described as follows: Kinetic Solubility Assay in pH 7.4 Buffer + 2% DMSO. The following applies: phosphate-buffered saline pH 7.4 with 2% DMSO, aqueous buffer, kinetic from dmso stock, 25° C., two hours. The class given is physicochemical. The method, then:
Biological Example 9: Kinetic Solubility
Kinetic solubility assay in pH 7.4 Buffer+2% DMSO (“Kinetic Solubility Assay) was performed according to the following protocol: Briefly, using a 20 mM stock solution of the tested compounds in 100% DMSO, dilutions were prepared to a theoretical concentration of 400 μM in duplicates in phosphate-buffered saline pH 7.4 (138 mM NaCl, 2.7 mM KCl, 10 mM K-phosphate) with 2% final DMSO. The tested compounds dilutions in PBS were further allowed to equilibrate at 25° C. on a thermostatic shaker for two hours and then filtered through HTS filter plates using a vacuum manifold. The filtrates of the test compounds were diluted 2-fold with acetonitrile with 2% DMSO before measuring.
In parallel, using a 20 mM stock solution of the tested compounds in 100% DMSO, dilutions were prepared to theoretical concentrations of 0 μM (blank), 10 μM, 25 μM, 50 μM, 100 μM, and 200 μM in 50% acetonitrile/PBS with 2% final DMSO to generate calibration curves. Ondansetron was used as a reference compound to control proper assay performance. 200 μL of each sample was transferred to a 96-well plate and measured in the 230-550 nm range with a 5 nm step.
The concentrations of compounds in PBS filtrate are calculated using a dedicated Microsoft Excel calculation script. Proper absorbance wavelengths for calculations are selected for each compound manually based on absorbance maximums (absolute absorbance unit values for the minimum and maximum concentration points within the 0-3 OD range). Each final dataset is visually evaluated by the operator, and goodness of fit (R2) is calculated for each calibration curve. The effective range of this assay is approximately 2-400 μM and the compounds returning values close to the upper limit of the range may have higher actual solubility (e.g., 5′-deoxy-5-fluorouridine).
Table 8 show kinetic solubility data for selected compounds tested in the Kinetic Solubility assay described above.

A short description of data set [2]: Mouse Liver Microsome Metabolic Stability Assay. It is filed as in vitro ADME. Particulars: pH 7.4, Mouse liver microsomes, 37° C., NADPH, read-out: t½. How it is done: Biological Example 10: Assessment of Metabolic Stability in Mouse Liver Microsomes
Metabolic Stability Assay: Microsomal incubations were carried out in 96-well plates in 5 aliquots of 30 μL each (one for each time point). Liver microsomal incubation medium comprised of phosphate buffer (100 mM, pH 7.4), MgCl2 (3.3 mM), NADPH (3 mM), glucose-6-phosphate (5.3 mM), glucose-6-phosphate dehydrogenase (0.67 units/ml) with 0.42 mg of liver microsomal protein per mL. In the control reactions the NADPH-cofactor system was substituted with phosphate buffer. Test compounds (2 μM, final solvent concentration 1.6%) were incubated with microsomes at 37° C., shaking at 100 rpm. Each reaction was performed in duplicates. Five time points over 40 minutes were analyzed. The reactions were stopped by adding 5 volumes of methanol containing internal standard to incubation aliquots, followed by protein sedimentation by centrifuging at 5500 rpm for 4 minutes. Supernatants were analyzed using the HPLC system coupled with tandem mass spectrometer.
The elimination constant (kel), half-life (t1/2) and intrinsic clearance (Clint) were determined in plot of […] versus time, using linear regression analysis:
In order to indicate the quality of the linear regression analysis, the R (correlation coefficient) values are provided. In some cases, the last time point is excluded from the calculations to ensure acceptable logarithmic linearity of decay.
Table 9 show metabolic stability data for selected compounds tested in the Mouse Liver Microsome Metabolic Stability assay described above.
In general terms: Liver microsomes are a subcellular fraction often used to study metabolism.

For the molecule `Cc1c(-c2ccn(C)n2)cn2nc(-c3nccn3C)nc(Nc3cc4n(n3)CCO4)c12` [Compound 124, N-(5-Methyl-2-(1-methyl-1H-imidazol-2-yl)-6-(1-methyl-1H-pyrazol-3-yl)pyrrolo[2,1-f][1,2,4]triazin-4-yl)-2,3-dihydropyrazolo[5,1-b]oxazol-6-amine], the “% inh of Erk1/2 phosphorylation in Panc-1” value (“% inh” for short) with Erk1/2 phosphorylation is “C* (46-84% activation)”. Further, the inhibition in the data set with IL6 lay in the range of 25 to 49%. Also, in the data set with TNF-alpha, the inhibition at 10 µM was in the range of 1 to 24%. Moreover, in data set [1], the solubility (commonly the dissolved amount per volume that the medium holds) at 2 h fell in the range of 10 to 30 µM. Further, the half-life at 2 µM in data set [2] is greater than 10 min.

Regarding `COc1cc(Nc2nc(-c3nccn3C)nn3cc(-c4ccn(C(C)C)n4)c(C)c23)ncn1` [Compound 6, 6-(1-Isopropyl-1H-pyrazol-3-yl)-N-(6-methoxypyrimidin-4-yl)-5-methyl-2-(1-methyl-1H-imidazol-2-yl)pyrrolo[2,1-f][1,2,4]triazin-4-amine], in the data set with Erk1/2 phosphorylation, the “% inh” value was 0 (0% inhibition). For the same molecule, the inhibition in the data set with IL6 was in the range of 75 to 100%. For the same molecule, the inhibition at 10 µM in the data set with TNF-alpha lay in the range of 25 to 49%. Moreover, in data set [1], the solubility at 2 h was less than 10 µM. The half-life at 2 µM in data set [2] is greater than 10 min.

Turning to `COc1ccnc(Nc2nc(-c3nccn3C)nn3cc(-c4ccn(C5CC5)n4)c(C)c23)c1` [Compound 137, 6-(1-Cyclopropyl-1H-pyrazol-3-yl)-N-(4-methoxypyridin-2-yl)-5-methyl-2-(1-methyl-1H-imidazol-2-yl)pyrrolo[2,1-f][1,2,4]triazin-4-amine], the “% inh” value with Erk1/2 phosphorylation is on record as “B* (26-49% activation)”. In addition, the inhibition in the data set on IL6 is 1 to 24%. The inhibition at 10 µM with TNF-alpha was in the range of 1 to 24%. In data set [1], the solubility at 2 h was 10 to 30 µM. For the same molecule, in data set [2], the half-life at 2 µM was greater than 10 min.

With `Cc1c(-c2ccn(C3CC3)n2)cn2nc(-c3nccn3C)nc(Nc3cc(N(C)C)ccn3)c12` [Compound 145, N^2-(6-(1-Cyclopropyl-1H-pyrazol-3-yl)-5-methyl-2-(1-methyl-1H-imidazol-2-yl)pyrrolo[2,1-f][1,2,4]triazin-4-yl)-N^4,N^4-dimethylpyridine-2,4-diamine], the “% inh” value in the data set with Erk1/2 phosphorylation was “C* (46-84% activation)”. For the same molecule, in the data set with IL6, the inhibition was 50 to 74%. In the data set on TNF-alpha, the inhibition at 10 µM lay within 1 to 24%. Moreover, the solubility at 2 h in data set [1] was in the range of 10 to 30 µM. The half-life at 2 µM in data set [2] was greater than 10 min.

For `Cc1c(-c2ccn(C3CC3)n2)cn2nc(-c3nccn3C)nc(Nc3ccccn3)c12` [Compound 143, 6-(1-Cyclopropyl-1H-pyrazol-3-yl)-5-methyl-2-(1-methyl-1H-imidazol-2-yl)-N-(pyridin-2-yl)pyrrolo[2,1-f][1,2,4]triazin-4-amine], the “% inh” value in the data set with Erk1/2 phosphorylation is given as “D* (85-100% activation)”. The inhibition in the data set on IL6 fell in the range of 75 to 100%. Besides, the inhibition at 10 µM with TNF-alpha is 50 to 74%. The solubility at 2 h in data set [1] is less than 10 µM. Besides, the half-life at 2 µM in data set [2] was less than 10 min.

As to `COc1ccnc(Nc2nc(-c3nccn3C)nn3cc(-c4cccnc4)c(C)c23)n1` [Compound 158, N-(4-Methoxy-pyrimidin-2-yl)-5-methyl-2-(1-methyl-1H-imidazol-2-yl)-6-(pyridin-3-yl)pyrrolo[2,1-f][1,2,4]triazin-4-amine], the “% inh” value with Erk1/2 phosphorylation is on record as “A (1-25% inhibition)”. Further, the inhibition with IL6 lay in the range of 1 to 24%. In the data set on TNF-alpha, the inhibition at 10 µM amounted to 0%. Further, the solubility at 2 h in data set [1] fell in the range of 10 to 30 µM. Moreover, the half-life at 2 µM in data set [2] was less than 10 min.

`Cc1c(-c2ccn(C)n2)cn2nc(-c3nccn3C)nc(Nc3cc(C4CC4)[nH]n3)c12` [Compound 104, N-(5-Cyclopropyl-1H-pyrazol-3-yl)-5-methyl-2-(1-methyl-1H-imidazol-2-yl)-6-(1-methyl-1H-pyrazol-3-yl)pyrrolo[2,1-f][1,2,4]triazin-4-amine]: the “% inh” value with Erk1/2 phosphorylation was “D* (85-100% activation)”. Also, in the data set with IL6, the inhibition was 75 to 100%. Also, in the data set on TNF-alpha, the inhibition at 10 µM is 0%. In addition, the solubility at 2 h in data set [1] was less than 10 µM. Moreover, the half-life at 2 µM in data set [2] is greater than 10 min.
